Test system: ACLP
Test: siRNA knockdown of ACLP in differentiating primary lung fibroblasts (Western blot)
Format: cell-based, mouse
Conditions: primary lung fibroblasts transfected day 1 post-isolation, 2 nM siRNA, vs NTC siRNA
Protocol: siRNA. Differentiating primary lung fibroblasts were transfected with 2 nM small interfering RNA (siRNA) targeting ACLP (Dharmacon) ([…]) (SEQ ID NO: 5) on either day 1 or day 2 post-isolation. Fully differentiated primary lung myofibroblasts were transfected at passage 2 or 3 with 2 nM siRNA targeting ACLP. Non-targeting control (NTC) siRNA ([…], […], […], […]) (SEQ ID NO: 6) was used as a control in all experiments. Transfections were performed using RNAiMAX (Invitrogen) according to manufacturer's instructions.
Knockdown of ACLP slows and partially reverts the fibroblast to myofibroblast transition. To determine if ACLP was required for fibroblast to myofibroblast differentiation, siRNA was used to knockdown ACLP expression during myofibroblast differentiation. Freshly isolated wildtype primary lung fibroblasts were transfected on day 1 post-isolation with siRNA targeting ACLP (FIG. 2B) (3).

GGCUCAAGAUCUACGCAAU (listed as RNA, chemistry not given here) [ACLP siRNA, small interfering RNA targeting mouse ACLP (Dharmacon)]
reduction in ACLP protein expression: 68%
reduction of Collagen I levels: 5%
reduction in SMA protein expression (statistically significant): 63%

Reference: patent publication US12139542B2, “Inhibitors of aortic carboxypeptidase-like protein (ACLP)” (TRUSTEES OF BOSTON UNIVERSITY, priority 2014, dated 2024)
